# Data from ChEMBL document CHEMBL3885861, “Open TG-GATES”.
# Species on record: Rattus norvegicus
# Assay: Open TG-GATES - Regimen: Single
# Format: toxicity, organism-based, Sprague-Dawley
# Set-up: regimen Single, gender Male, age 6 weeks
# Details: in vivo, po, 50 mg/kg, route gavage, dose level Middle; for APTT / Bas / Eos / Fbg / Hb / Ht / Lym / MCHC / MCV / Mono / Neu / PT / Plat / RBC / Ret / WBC: tissue Blood; for KIDNEY_L / KIDNEY_R / KIDNEY_TOTAL: tissue Kidney; for LIVER: tissue Liver; for ALP / ALT / AST / BUN / CRE / Ca / Cl / DBIL / GLC / IP / K / LDH / Na / PL / RALB / TBIL / TC / TG / TP / gamma-GTP: tissue Plasma
structure (smiles),measurement,setting,value
C1CCC(C(CC2CCCCN2)C2CCCCC2)CC1 (centres undefined) [PERHEXILINE],TERMINAL_BW,3 h,207.9 g
same,APTT,3 h,22 s
same,Bas,3 h,0%
same,Eos,3 h,0.8%
same,Fbg,3 h,319.8 mg/dL
same,Hb,3 h,13.6 g/dL
same,Ht,3 h,40.9%
same,Lym,3 h,77.6%
same,MCHC,3 h,33.3%
same,MCV,3 h,62.5 fL
same,Mono,3 h,1.8%
same,Neu,3 h,19%
same,PT,3 h,15.7 s
same,Plat,3 h,132.9 x10_4/uL
same,RBC,3 h,656 x10_4/ul
same,Ret,3 h,6.5%
same,WBC,3 h,52.6 x10_2/uL
same,KIDNEY_L,3 h,1 g
same,KIDNEY_R,3 h,1 g
same,KIDNEY_TOTAL,3 h,2 g
same,LIVER,3 h,9.4 g
same,ALP,3 h,1767.8 IU/L
same,ALT,3 h,47.4 IU/L
same,AST,3 h,72 IU/L
same,BUN,3 h,10.8 mg/dL
same,CRE,3 h,0.1 mg/dL
same,Ca,3 h,10.8 mg/dL
same,Cl,3 h,105 meq/L
same,DBIL,3 h,0.004 mg/dL
same,GLC,3 h,164.6 mg/dL
same,IP,3 h,9.2 mg/dL
same,K,3 h,4 meq/L
same,LDH,3 h,190.6 IU/L
same,Na,3 h,140.4 meq/L
same,PL,3 h,140.2 mg/dL
same,RALB,3 h,3.1 g/dL
same,TBIL,3 h,0.012 mg/dL
same,TC,3 h,73 mg/dL
same,TG,3 h,65.8 mg/dL
same,TP,3 h,5.7 g/dL
same,gamma-GTP,3 h,0.8 IU/L
same,TERMINAL_BW,6 h,216.9 g
same,APTT,6 h,21.5 s
same,Bas,6 h,0%
same,Eos,6 h,1%
same,Fbg,6 h,325.6 mg/dL
same,Hb,6 h,13 g/dL
same,Ht,6 h,38.7%
same,Lym,6 h,72.8%
same,MCHC,6 h,33.5%
same,MCV,6 h,62.6 fL
same,Mono,6 h,2.8%
same,Neu,6 h,22.2%
same,PT,6 h,15.7 s
same,Plat,6 h,126.8 x10_4/uL
same,RBC,6 h,619.8 x10_4/ul
same,Ret,6 h,7.7%
same,WBC,6 h,94.8 x10_2/uL
same,KIDNEY_L,6 h,1.1 g
same,KIDNEY_R,6 h,1 g
same,KIDNEY_TOTAL,6 h,2.1 g
same,LIVER,6 h,9.5 g
same,ALP,6 h,1607.2 IU/L
same,ALT,6 h,40.4 IU/L
same,AST,6 h,69.8 IU/L
same,BUN,6 h,11.4 mg/dL
same,CRE,6 h,0.2 mg/dL
same,Ca,6 h,10.9 mg/dL
same,Cl,6 h,105.2 meq/L
same,DBIL,6 h,0.006 mg/dL
same,GLC,6 h,161 mg/dL
same,IP,6 h,10.1 mg/dL
same,K,6 h,4.5 meq/L
same,LDH,6 h,182.6 IU/L
same,Na,6 h,139 meq/L
same,PL,6 h,137.8 mg/dL
same,RALB,6 h,3 g/dL
same,TBIL,6 h,0.014 mg/dL
same,TC,6 h,69.2 mg/dL
same,TG,6 h,81.6 mg/dL
same,TP,6 h,5.6 g/dL
same,gamma-GTP,6 h,1 IU/L
same,TERMINAL_BW,9 h,203.5 g
same,APTT,9 h,21 s
same,Bas,9 h,0%
same,Eos,9 h,0.6%
same,Fbg,9 h,325.2 mg/dL
same,Hb,9 h,13.1 g/dL
same,Ht,9 h,39.1%
same,Lym,9 h,76.2%
same,MCHC,9 h,33.6%
same,MCV,9 h,63.4 fL
same,Mono,9 h,1.8%
same,Neu,9 h,20.2%
same,PT,9 h,15.5 s
same,Plat,9 h,130 x10_4/uL
same,RBC,9 h,617.6 x10_4/ul
same,Ret,9 h,7.4%
same,WBC,9 h,69.7 x10_2/uL
same,KIDNEY_L,9 h,1 g
same,KIDNEY_R,9 h,1 g
same,KIDNEY_TOTAL,9 h,1.9 g
same,LIVER,9 h,8.5 g
same,ALP,9 h,1598.6 IU/L
same,ALT,9 h,40.2 IU/L
same,AST,9 h,69 IU/L
same,BUN,9 h,11 mg/dL
same,CRE,9 h,0.1 mg/dL
same,Ca,9 h,10.8 mg/dL
same,Cl,9 h,105.4 meq/L
same,DBIL,9 h,0.002 mg/dL
same,GLC,9 h,169.8 mg/dL
same,IP,9 h,9.9 mg/dL
same,K,9 h,4.1 meq/L
same,LDH,9 h,238.2 IU/L
same,Na,9 h,139.2 meq/L
same,PL,9 h,137 mg/dL
same,RALB,9 h,3 g/dL
same,TBIL,9 h,0.018 mg/dL
same,TC,9 h,78.6 mg/dL
same,TG,9 h,39.4 mg/dL
same,TP,9 h,5.6 g/dL
same,gamma-GTP,9 h,1 IU/L
same,TERMINAL_BW,24 h,220 g
same,APTT,24 h,20.4 s
same,Bas,24 h,0%
same,Eos,24 h,1%
same,Fbg,24 h,309.4 mg/dL
same,Hb,24 h,13.5 g/dL
same,Ht,24 h,40.3%
same,Lym,24 h,82%
same,MCHC,24 h,33.4%
same,MCV,24 h,63.4 fL
same,Mono,24 h,2%
same,Neu,24 h,14%
same,PT,24 h,15.6 s
same,Plat,24 h,116.9 x10_4/uL
same,RBC,24 h,635.4 x10_4/ul
same,Ret,24 h,6.5%
same,WBC,24 h,92.8 x10_2/uL
same,KIDNEY_L,24 h,0.9 g
same,KIDNEY_R,24 h,1 g
same,KIDNEY_TOTAL,24 h,1.9 g
same,LIVER,24 h,10.2 g
same,ALP,24 h,1673.6 IU/L
same,ALT,24 h,43.2 IU/L
same,AST,24 h,72.8 IU/L
same,BUN,24 h,15.4 mg/dL
same,CRE,24 h,0.2 mg/dL
same,Ca,24 h,10.7 mg/dL
same,Cl,24 h,108 meq/L
same,DBIL,24 h,0 mg/dL
same,GLC,24 h,179.8 mg/dL
same,IP,24 h,7.4 mg/dL
same,K,24 h,4.4 meq/L
same,LDH,24 h,240.6 IU/L
same,Na,24 h,143.4 meq/L
same,PL,24 h,146.4 mg/dL
same,RALB,24 h,3.2 g/dL
same,TBIL,24 h,0.01 mg/dL
same,TC,24 h,72 mg/dL
same,TG,24 h,117.2 mg/dL
same,TP,24 h,5.6 g/dL
same,gamma-GTP,24 h,1 IU/L
